Assay results taken from ChEMBL document CHEMBL1138551, “Antimicrobial studies of some novel quinazolinones fused with [1,2,4]-triazole, [1,2,4]-triazine and [1,2,4,5]-tetrazine rings” (2009).
Converted amounts (≈) assume the structure as drawn.

Key:
Assay type in all cases: functional
[1] = tested on: Escherichia coli; test: Antibacterial activity against Escherichia coli after 24 hrs by disk diffusion method
[2] = tested on: Pseudomonas aeruginosa; test: Antibacterial activity against Pseudomonas aeruginosa after 24 hrs by disk diffusion method
[3] = tested on: Streptococcus pneumoniae; test: Antibacterial activity against Streptococcus pneumoniae after 24 hrs by disk diffusion method
[4] = tested on: Bacillus subtilis; test: Antibacterial activity against Bacillus subtilis after 24 hrs by disk diffusion method
[5] = tested on: Candida albicans; test: Antifungal activity against Candida albicans after 26 hrs by serial plate dilution method
[6] = tested on: Aspergillus fumigatus; test: Antifungal activity against Aspergillus fumigatus after 26 hrs by serial plate dilution method
[7] = tested on: Aspergillus flavus; test: Antifungal activity against Aspergillus flavus after 26 hrs by serial plate dilution method
[8] = tested on: Aspergillus niger; test: Antifungal activity against Aspergillus niger after 26 hrs by serial plate dilution method

| Compound | MIC [1] | MIC [2] | MIC [3] | MIC [4] | MIC [5] | MIC [6] | MIC [7] | MIC [8] |
| --- | --- | --- | --- | --- | --- | --- | --- | --- |
| O=C1c2ccccc2N2C(=NNC(=S)N2c2ccccc2)N1c1ccccc1 | > 50 µg/mL | 50 µg/mL (≈ 130 µM) | 25 µg/mL (≈ 64.9 µM) | > 50 µg/mL | 25 µg/mL (≈ 64.9 µM) | > 50 µg/mL | > 50 µg/mL | 25 µg/mL (≈ 64.9 µM) |
| Cc1ccc(-n2c(=O)c3ccccc3n3c(-c4ccccc4C)nnc23)cc1 | 25 µg/mL (≈ 68.2 µM) | > 50 µg/mL | 25 µg/mL (≈ 68.2 µM) | > 50 µg/mL | 25 µg/mL (≈ 68.2 µM) | 12.5 µg/mL (≈ 34.1 µM) | 50 µg/mL (≈ 136 µM) | 12.5 µg/mL (≈ 34.1 µM) |
| Cc1ccc(-n2c(=O)c3ccccc3n3c(-c4ccccc4)nnc23)cc1 | 25 µg/mL (≈ 70.9 µM) | 25 µg/mL (≈ 70.9 µM) | 50 µg/mL (≈ 142 µM) | 50 µg/mL (≈ 142 µM) | > 50 µg/mL | 25 µg/mL (≈ 70.9 µM) | 50 µg/mL (≈ 142 µM) | 50 µg/mL (≈ 142 µM) |
| O=c1c2ccccc2n2c3nc4ccccc4c-3nnc2n1-c1ccc(Cl)cc1 | 3.12 µg/mL (≈ 7.84 µM) | 3.12 µg/mL (≈ 7.84 µM) | 1.56 µg/mL (≈ 3.92 µM) | 6.25 µg/mL (≈ 15.7 µM) | 3.12 µg/mL (≈ 7.84 µM) | 6.25 µg/mL (≈ 15.7 µM) | 3.12 µg/mL (≈ 7.84 µM) | 1.56 µg/mL (≈ 3.92 µM) |
| O=c1c2ccccc2n2c(-c3ccccc3Cl)nnc2n1-c1ccc(Cl)cc1 | 1.56 µg/mL (≈ 3.83 µM) | 3.12 µg/mL (≈ 7.66 µM) | 3.12 µg/mL (≈ 7.66 µM) | 1.56 µg/mL (≈ 3.83 µM) | 1.56 µg/mL (≈ 3.83 µM) | 3.12 µg/mL (≈ 7.66 µM) | 6.25 µg/mL (≈ 15.3 µM) | 1.56 µg/mL (≈ 3.83 µM) |
| O=C(O)c1cn(C2CC2)c2cc(N3CCNCC3)c(F)cc2c1=O [CIPROFLOXACIN] |  | 3.12 µg/mL (≈ 9.42 µM) | 6.25 µg/mL (≈ 18.9 µM) | 1.56 µg/mL (≈ 4.71 µM) |  |  |  |  |
| Cc1ccc(-n2c(=O)c3ccccc3n3c(-c4ccccc4Cl)nnc23)cc1 | 12.5 µg/mL (≈ 32.3 µM) | 6.25 µg/mL (≈ 16.2 µM) | 12.5 µg/mL (≈ 32.3 µM) | 25 µg/mL (≈ 64.6 µM) | 12.5 µg/mL (≈ 32.3 µM) | 25 µg/mL (≈ 64.6 µM) | 50 µg/mL (≈ 129 µM) | 6.25 µg/mL (≈ 16.2 µM) |
| Cc1ccc(N2C(=O)c3ccccc3N3C2=NNC(=S)N3c2ccc(C)cc2)cc1 | 25 µg/mL (≈ 60.5 µM) | 50 µg/mL (≈ 121 µM) | 50 µg/mL (≈ 121 µM) | 25 µg/mL (≈ 60.5 µM) | 25 µg/mL (≈ 60.5 µM) | 50 µg/mL (≈ 121 µM) | 12.5 µg/mL (≈ 30.2 µM) | 25 µg/mL (≈ 60.5 µM) |
| Cc1ccc(N2C(=S)NN=C3N(c4ccccc4)C(=O)c4ccccc4N32)cc1 | 50 µg/mL (≈ 125 µM) | 50 µg/mL (≈ 125 µM) | 25 µg/mL (≈ 62.6 µM) | 50 µg/mL (≈ 125 µM) | > 50 µg/mL | 25 µg/mL (≈ 62.6 µM) | 12.5 µg/mL (≈ 31.3 µM) | 25 µg/mL (≈ 62.6 µM) |
| COc1ccc(N2C(=S)NN=C3N(c4ccccc4)C(=O)c4ccccc4N32)cc1 | 6.25 µg/mL (≈ 15 µM) | 3.12 µg/mL (≈ 7.51 µM) | 25 µg/mL (≈ 60.2 µM) | 3.12 µg/mL (≈ 7.51 µM) | 6.25 µg/mL (≈ 15 µM) | 12.5 µg/mL (≈ 30.1 µM) | 25 µg/mL (≈ 60.2 µM) | 3.12 µg/mL (≈ 7.51 µM) |
| O=c1c2ccccc2n2c(-c3ccccc3Cl)nnc2n1-c1ccccc1 | 12.5 µg/mL (≈ 33.5 µM) | 6.25 µg/mL (≈ 16.8 µM) | 25 µg/mL (≈ 67.1 µM) | 50 µg/mL (≈ 134 µM) | 25 µg/mL (≈ 67.1 µM) | 50 µg/mL (≈ 134 µM) | 12.5 µg/mL (≈ 33.5 µM) | 6.25 µg/mL (≈ 16.8 µM) |
| OC(Cn1cncn1)(Cn1cncn1)c1ccc(F)cc1F [FLUCONAZOLE] |  |  |  |  | 1.56 µg/mL (≈ 5.09 µM) | 6.25 µg/mL (≈ 20.4 µM) | 3.12 µg/mL (≈ 10.2 µM) | 1.56 µg/mL (≈ 5.09 µM) |
| Cc1ccc(N2C(=O)c3ccccc3N3C2=NNC(=S)N3c2ccccc2)cc1 | 25 µg/mL (≈ 62.6 µM) | 25 µg/mL (≈ 62.6 µM) | > 50 µg/mL | 25 µg/mL (≈ 62.6 µM) | 25 µg/mL (≈ 62.6 µM) | 12.5 µg/mL (≈ 31.3 µM) | 12.5 µg/mL (≈ 31.3 µM) | 25 µg/mL (≈ 62.6 µM) |
| O=c1c2ccccc2n2c(-c3ccccc3)nnc2n1-c1ccccc1 | 50 µg/mL (≈ 148 µM) | > 50 µg/mL | 50 µg/mL (≈ 148 µM) | 25 µg/mL (≈ 73.9 µM) | 25 µg/mL (≈ 73.9 µM) | > 50 µg/mL | > 50 µg/mL | 25 µg/mL (≈ 73.9 µM) |
| COc1ccc(-n2c(=O)c3ccccc3n3c4nc5ccccc5c-4nnc23)cc1 | 12.5 µg/mL (≈ 31.8 µM) | 12.5 µg/mL (≈ 31.8 µM) | 12.5 µg/mL (≈ 31.8 µM) | 6.25 µg/mL (≈ 15.9 µM) | 6.25 µg/mL (≈ 15.9 µM) | 6.25 µg/mL (≈ 15.9 µM) | 3.12 µg/mL (≈ 7.93 µM) | 12.5 µg/mL (≈ 31.8 µM) |
| COc1ccc(-n2c(=O)c3ccccc3n3c(-c4ccccc4C)nnc23)cc1 | 6.25 µg/mL (≈ 16.3 µM) | 3.12 µg/mL (≈ 8.16 µM) | 25 µg/mL (≈ 65.4 µM) | 12.5 µg/mL (≈ 32.7 µM) | 12.5 µg/mL (≈ 32.7 µM) | 6.25 µg/mL (≈ 16.3 µM) | 25 µg/mL (≈ 65.4 µM) | 6.25 µg/mL (≈ 16.3 µM) |
| O=c1c2ccccc2n2c(-c3ccccc3)nnc2n1-c1ccc(Cl)cc1 | 6.25 µg/mL (≈ 16.8 µM) | 12.5 µg/mL (≈ 33.5 µM) | 12.5 µg/mL (≈ 33.5 µM) | 6.25 µg/mL (≈ 16.8 µM) | 12.5 µg/mL (≈ 33.5 µM) | 6.25 µg/mL (≈ 16.8 µM) | 12.5 µg/mL (≈ 33.5 µM) | 25 µg/mL (≈ 67.1 µM) |
| Cc1ccc(-n2c(=O)c3ccccc3n3c4nc5ccccc5c-4nnc23)cc1 | 25 µg/mL (≈ 66.2 µM) | > 50 µg/mL | 25 µg/mL (≈ 66.2 µM) | 25 µg/mL (≈ 66.2 µM) | 25 µg/mL (≈ 66.2 µM) | 12.5 µg/mL (≈ 33.1 µM) | 25 µg/mL (≈ 66.2 µM) | 50 µg/mL (≈ 132 µM) |
| COc1ccc(-n2c(=O)c3ccccc3n3c(-c4ccccc4)nnc23)cc1 | 12.5 µg/mL (≈ 33.9 µM) | 6.25 µg/mL (≈ 17 µM) | 6.25 µg/mL (≈ 17 µM) | 12.5 µg/mL (≈ 33.9 µM) | 6.25 µg/mL (≈ 17 µM) | 12.5 µg/mL (≈ 33.9 µM) | 25 µg/mL (≈ 67.9 µM) | 3.12 µg/mL (≈ 8.47 µM) |
| Cc1ccccc1-c1nnc2n(-c3ccccc3)c(=O)c3ccccc3n12 | 25 µg/mL (≈ 70.9 µM) | 50 µg/mL (≈ 142 µM) | > 50 µg/mL | > 50 µg/mL | 50 µg/mL (≈ 142 µM) | 25 µg/mL (≈ 70.9 µM) | 25 µg/mL (≈ 70.9 µM) | > 50 µg/mL |
| Cc1ccccc1-c1nnc2n(-c3ccc(Cl)cc3)c(=O)c3ccccc3n12 | 12.5 µg/mL (≈ 32.3 µM) | 25 µg/mL (≈ 64.6 µM) | 25 µg/mL (≈ 64.6 µM) | 12.5 µg/mL (≈ 32.3 µM) | 6.25 µg/mL (≈ 16.2 µM) | 12.5 µg/mL (≈ 32.3 µM) | 3.12 µg/mL (≈ 8.07 µM) | 12.5 µg/mL (≈ 32.3 µM) |
| COc1ccc(-n2c(=O)c3ccccc3n3c(-c4ccccc4Cl)nnc23)cc1 | 3.12 µg/mL (≈ 7.74 µM) | 1.56 µg/mL (≈ 3.87 µM) | 6.25 µg/mL (≈ 15.5 µM) | 3.12 µg/mL (≈ 7.74 µM) | 6.25 µg/mL (≈ 15.5 µM) | 3.12 µg/mL (≈ 7.74 µM) | 3.12 µg/mL (≈ 7.74 µM) | 1.56 µg/mL (≈ 3.87 µM) |
| O=c1c2ccccc2n2c3nc4ccccc4c-3nnc2n1-c1ccccc1 | 50 µg/mL (≈ 138 µM) | 25 µg/mL (≈ 68.8 µM) | > 50 µg/mL | 50 µg/mL (≈ 138 µM) | > 50 µg/mL | 25 µg/mL (≈ 68.8 µM) | 25 µg/mL (≈ 68.8 µM) | > 50 µg/mL |
